The subject of experiment [1] is RPE cells. Description: Wounding of the RPE cell layer in organ-cultured mouse globes. The class given is cell-based. The conditions noted are these: TGF-β2 10 ng/ml, WT posterior segments; KO negative. As for the experimental part:
Both eyes were enucleated immediately after being sacrificed as described above. Anterior eye segment structures (cornea and lens) and retina were carefully removed from the globe. After the RPE cell layer had been wounded by scraping using a silicone needle, the tissue was cultured in Eagle's medium supplemented with 10% fetal calf serum in the presence or absence of human recombinant TGF-β2 at 10 ng/ml for 48 hr. The tissue was fixed and embedded in paraffin as previously described (Example 1).
Sections (5 μm) were deparaffinized and stained with hematoxylin and eosin (HE) alone or with polyclonal antibodies against collagen type VI (1:100 dilution in PBS, Southern Biotechnology, Birmingham, Ala.), rabbit polyclonal anti-lumican antibody (10 μg/ml (Saika, S. et al. 2000 J Biol Chem 275:2607-2612)), mouse monoclonal anti-αSMA antibody (1:100 dilution in PBS, NeoMarker, Fremont, Calif., USA), goat polyclonal anti-PDGF-B antibody (1:200 dilution in PBS, Santa Cruz), mouse monoclonal anti-proliferating cell nuclear antigen (PCNA) antibody (1:100 dilution in PBS, Santa Cruz) or with non-immune IgGs (control). After binding of FITC-labeled secondary antibodies (1:100 dilution in PBS, Cappel ICN, Aurora, Ohio, USA), the specimens were observed under fluorescent microscopy followed by mounted with VectaShield with nuclear DAPI staining. […]

Experiment [2] deals with ARPE-19 cells. Description: EMT and Smad phosphorylation in ARPE-19 cells. The class given is cell-based, human. An excerpt:
(§1) The ARPE-19 human RPE cell line (ATCC # CRL-2302) (Dunn, K. C. et al. 1996 Exp Eye Res 62:155-169) was used to assess effects of […] TGF-β2 on expression of αSMA and Smad3 activation as previously described (EXAMPLE 1). Effect of addition of TGF-β2 on ARPE-19 cell migration was examined by using a model of in vitro closure of a monolayer cell sheet as previously reported (Saika, S. et al. 1995 Graefes Arch Clin Exp Ophthalmol 233:347-353).

Experiment [3] relates to ARPE-19 cells. Description: Proliferation of ARPE-19 cells (MTT assay). Format: cell-based, human. The conditions noted are these: sparse cultures, up to 120 hr; PDGF-BB 5 ng/ml, TGF-β2 1 ng/ml. Here is the method:
Effects of adding TGF-β2, PDGF-BB, and/or anti-PDGF-B-neutralizing antibody on proliferation of ARPE-19 cells were assessed using the MTT assay (TACS MTT Cell Proliferation Assay Kit, Trevigen, Gaithersburg, Md., USA) according to manufacturer's instruction. ARPE 19 cells suspended in DMEM/F-12 supplemented with 15% fetal calf serum (2×10^4/100 μl/well) were seeded in 96-well culture plates (8 wells for each condition). After 12 hrs cells were changed to 100 μl serum-free culture medium and cultured for an additional 120 hr supplemented with PDGF-BB (5.0 ng/ml) or TGF-β2 (1.0 ng/ml), with either neutralizing anti-PDGF-B antibody (20 μg/ml) or non-immune IgG (20 μg/ml) as control. At the end of each culture interval, MTT reagent (10 μl) was added to each well and the incubation continued for an additional 5 hr at 37° C. Optical density at 570 nm was measured 4 hr after adding the lysis solution contained in the kit.
Background: Tetrazolium dyes change colour on reduction, which living cells bring about.

In experiment [4] the test system is primary porcine RPE cells. Briefly: EMT in primary cultures of porcine RPE cells (αSMA immunostaining). The class given is cell-based. Conditions: TGF-β2 10 ng/ml, 48 hr; not in its absence. As for the experimental part:
Cultures of primary porcine RPE cells were prepared by aspirating RPE layers from a hemi-sectioned pig eye after removing the retina by using a micropipette, and putting the aspirate in a 30-mm diameter collagen-coated plastic culture dish to allow the epithelial cells to outgrow. After reaching confluence, the cells were trypsinized, suspended in Dulbecco's modified Eagle's essential medium (DMEM) supplemented with 10% fetal calf serum, and seeded on fibronectin-coated chamber slides (Falcon, Becton Dickinson, Lincoln Park, N.J.) in the presence and absence of 10 ng/ml of porcine TGF-β2 (R & D systems Inc., Minneapolis, Minn.). At 24 hr culture intervals the cells were fixed and immunostained for αSMA.

The subject of experiment [5] is lens epithelium. Briefly: Organ-culture of mouse lenses with TGF-β2. Format: cell-based. The conditions noted are these: TGF-β2 10 ng/ml, not KO. Here is the method: The crystalline lens was carefully removed from enucleated eyes of adult Smad3-KO or WT mice and processed for organ-culture as previously described (Saika, S. et al. 2003 Invest Ophthalmol Vis Sci 44: 2094-2102). Three lenses were used in each culture condition. The lens was incubated in DMEM supplemented with antibiotics in the presence and absence of porcine TGF-β2 (10 ng/ml) with a medium change every 2 days. After 5 or 10 days of culture, the tissue was fixed in 2.0% paraformaldehyde as described above. Paraffin sections were processed for histology and immunohistochemistry.
Sections (5 μm) were deparaffinized and stained with hematoxylin and eosin (HE) alone or with polyclonal antibodies against collagen types I and V (both 1:100 dilution in PBS, Southern Biotechnology, Birmingham, Ala.), rabbit polyclonal anti-lumican antibody (10 μg/ml)(Saika, S. et al. 2000 J Biol Chem 275: 2607-2612), or with a mouse monoclonal anti-αSMA antibody (1:100 dilution in PBS, NeoMarker, Fremont, Calif., USA), rabbit polyclonal antibodies against the TGF-β isoforms as previously reported (Flanders, K. C. et al. 1991 Development 113: 183-191), or with non-immune IgG (control). After binding of labeled secondary antibody and the color reaction with 3,3′-diaminobenzidine, sections were counterstained with methyl green and mounted in balsam. […]

Experiment [6] concerns ARPE-19 cells. Description: Production of PDGF, TGF-β1 and collagen type I in ARPE-19 cells treated with TGF-β2. Format: cell-based, human. As for the experimental part: Expression of PDGF-BB in ARPE-19 cells was assessed by western blot of cell lysates using PDGF-B (H-55, Santa Cruz Biotechnology, Inc.). Enzyme-linked immunosorbent assays (ELISAs) for PDGF-BB, PDGF-AB and TGF-β1 (R & D Systems, Inc., Minneapolis, Minn.) were used to determine the concentration of each peptide in the culture medium. ARPE-19 cells were grown in 6-well plates to near confluence and then cultured in 500 μl of serum-free DMEM/F-12 supplemented with antibiotics in the presence or absence of human recombinant TGF-β2 (1.0 ng/ml R & D Systems, Inc., Minneapolis, Minn.) for 48 or 96 hrs. Nine wells were prepared for each culture condition. Medium was processed for ELISAs for determination of the concentration of PDGF-BB and -AB according to the manufacturers' protocols. Medium (48 hr) was also processed for the determination of TGF-β1 by an ELISA kit (R & D Systems, Minneapolis, Minn.). Type I collagen was quantified in medium and sonicated cell lysates (48 hr) and processed for an ELISA system for type I collagen C-terminal peptide (PIP ELISA kit, Takara, Tokyo, Japan). Confluent cells grown on a chamber slides (Nunc) were immunostained for collagen type I (1:100 dilution in PBS, Southern Biotechnology).

The test system of experiment [7] is ARPE-19 cells. Description: ARPE-19 cell migration, in vitro closure of a defect in a monolayer cell sheet. The class given is cell-based, human. The conditions noted are these: TGF-β2 1.0 ng/ml; 24 hrs for the untreated culture.
Text: as §1

With “TGF-β2: exogenous TGF-β2 growth factor; porcine or human recombinant depending on experiment”, in experiment [1], the “αSMA expression in wounded pigment epithelium” value is “expresses αSMA faintly at 24 hr and then clearly at 48 hr”. Also, the αSMA expression entry is on record as “clusters of αSMA positive cells” in experiment [2] (TGF-β2 for 72 hr) and “express αSMA” in experiment [4]. In experiment [2] (immunofluorescence, no longer detectable at 24 hr), the “time of highest level of nuclear translocation of Smad3 after addition of TGF-β2” value was 1 h. The “time to phosphorylation of Smads2/3 after TGF-β2 exposure (Western blotting)” value in experiment [2] (remained activated up to 48 hrs) is listed as ≤ 30 min. The “growth of the cells (MTT assay)” value in experiment [3] was “inhibited”. The “lens epithelium morphology and EMT markers (lumican, αSMA, collagen type I)” value in experiment [5] (10 days, WT lenses) was “multilayer of cells of a fibroblastic morphology”. Further, the expression of lumican entry in experiment [5] (day 5, WT lenses) is on record as “up-regulated expression of lumican”. Also, the “amount of type I collagen in culture medium and cell lysate (ELISA)” value in experiment [6] (48 hr) was “increase”. Moreover, the “PDGF-AB production (ELISA)” value in experiment [6] (TGF-β2 1.0 ng/ml) is reported as “significantly increased”. Further, the “concentration of PDGF-BB in culture medium (ELISA)” value in experiment [6] (TGF-β2 1.0 ng/ml, 96 hrs) is on record as “approximately 500 pg/ml”. Moreover, the “PDGF-B protein expression (Western blotting)” value in experiment [6] (TGF-β2 1.0 ng/ml, beginning about 48-72 hrs after addition) is reported as “time-dependent up-regulation”. Moreover, the “PDGF-BB protein secreted into the culture medium, increase above control cultures (ELISA)” value in experiment [6] (TGF-β2 1.0 ng/ml, confluent cultures) is “over 2 fold”. The “expression of TGF-β1 in medium (ELISA)” value in experiment [6] (exogenous TGF-β2, 48 hr) was “significant increase”. In addition, the “time to closure of the defect in wounded monolayer” value in experiment [7] is ≤ 12 h.

The values are drawn from patent publication US20060040253A1, “Use of Smad3 inhibitor in the treatment of fibrosis dependent on epithelial to mesenchymal transition as in the eye and kidney” (priority 2003, published 2006).
